The text below walks through data of patent US4150138A, “Method of reducing blood pressure with thiourea derivatives and guanidine derivatives” (Hoffmann-La Roche Inc., priority 1978, dated 1979).

The test system of data set [1] is genetically or deoxycorticosterone acetate/sodium chloride fed hypertensive rats. The data set is described as follows: Anti-hypertensive activity in hypertensive rats (indirect systolic blood pressure from the tail, heart rate). Type of data set: in vivo, rat (Charles River male). Conditions: 10 mg/kg p.o., 6 hours after administration. As to the method:
For example, Doca-Na hypertension is induced in Charles River male rats weighing 170-210 grams by unilateral nephrectomy followed by subcutaneous implantation of a 25 mg. deoxycorticosterone acetate pellet. Animals are placed in individual cages and receive 0.9% sodium chloride solution and rat chow diet ad libitum. Two weeks are allowed to elapse from the time of surgery for development of hypertension, i.e., systolic blood pressure above 150 mm Hg. Systolic blood pressure is measured indirectly from the tail of unanesthetized rats (restrained in holders heated for 5-10 minutes at 37°-38° C.) using a pneumatic pulse transducer (piezo-electric crystal and occluding cuff). The transducer and occluding cuff are coupled to a two-channel recorder. Control readings are taken prior to drug and at 1, 3, 6 and 24 hours post-drug. All test compounds are prepared in acacia solution (5%) and are orally administered to the test animals.

A short description of data set [2]: Acute toxicity (LD50) in the mouse. As to conditions: in vivo.
Data set [3] deals with tetrabenazine-induced ptosis in mice. The data set is described as follows: Antidepressant activity: prevention of tetrabenazine-induced ptosis in mice. Type of data set: in vivo. Conditions: Mus musculus, ip, 1 h, tetrabenazine (normally 150 mg/kg) i.p. one hour after test compound, ptosis read one hour later, read-out: ED50 (dose at which ptosis is prevented in 3/6 of the mice). Here is the method:
The compounds of formulas I and II have central nervous system activity, including antidepressant activity. […] For example, six mice are treated with the test compound. One hour later a ptosis-inducing dose of tetrabenazine (normally 150 mg/kg) is given intraperitoneally. Ptosis is read one hour after the tetrabenazine injection. The ED50 is the dose at which ptosis is prevented in 3/6 of the mice. […] The ED50 is calculated by the method of Behrens. Arch. Exp. Path. & Pharm. 140, 237 (1929).

Where two headings read alike, the source gives them in different places.

As a reminder, the LD50 is the dose expected to kill half of the subjects tested.

For `NCCNC(=S)Nc1c(Cl)cccc1Cl` [1-(2-aminoethyl)-3-(2,6-dichlorophenyl)thiourea], in data set [1], the “decrease in the blood pressure” value came to 73 mm/Hg and the “decrease in the heart rate” value is 81 beats/minutes. In addition, the LD50 in data set [2] (ip, read-out: LD50 i.p.) was in the range of 450 to 550 mg/kg. Further, the LD50 in data set [2] (po, read-out: LD50 p.o.) was 750 to 775 mg/kg. Also, in data set [3], the ED50 was determined as 5.7 mg/kg.

In the case of `NCCNC(=S)Nc1cccc(Cl)c1Cl` [1-(2-aminoethyl)-3-(2,3-dichlorophenyl)thiourea], in data set [1], the “decrease in the blood pressure” value is 51 mm/Hg and the “decrease in the heart rate” value amounted to 95 beats/minutes. Moreover, in data set [2] (ip, read-out: LD50 i.p.), the 50% lethal dose (LD50) worked out at 450 mg/kg. Further, the LD50 in data set [2] (po, read-out: LD50 p.o.) was > 1000 mg/kg.
